According to patent publication US9050375B2, “Bi-specific digoxigenin binding antibodies” (priority 2009, dated 2015):
Several values for one entry are separate records, joined by “and”; a condition that tells them apart may be missing. Equal entries are not always repeated. {Dig} = digoxigenin coupled through a C6 amino linker; {Cy5} = Cy5 fluorescent dye label; d = 2'-deoxy (DNA); m = 2'-O-methyl; r = 2'-OH (RNA)

What was measured:
[1] = test system: Eg5 mRNA in HeLa-S3 cells; test: Eg5 bDNA assay of transfected siRNAs; format: cell-based, human; settings: Lipofectamine 2000 transfection, 24 hours
Excerpt: To evaluate whether additions or alterations of siRNAs by digoxygenin alters its biological activity, we performed in vitro assays in cell culture. For that, we chose to assess the activity of siRNA that inactivates the mRNA of Eg5. The direct effect of Eg5 siRNA activity is down-regulation of its cognate mRNA. This can be quantified by bDNA (branched DNA) assays, which detect the amount of specific mRNAs in cells (Burris et al., 1999, Molecular Endocrinology). To perform these assays, we seeded a defined number of the respective cell type into 96-well plates and allowed them to attach over night. The next day cells were transfected with desired amounts of a certain siRNA or treated with the agent whose effect on the mRNA-level should be analysed. After 24 hours the QuantiGene kit protocol was followed according to the instructions of the manufacturer (Affymetrix) in order to quantify the mRNA levels. Briefly, the cell lysates were transferred to a capture plate in the presence of a gene-specific probe set and then incubated at 53° C. over night. Wells were washed. They were then incubated at 53° C. sequentially with an Amplifier and an alkaline phosphatase-linked label probe with a wash between the incubations. After a final wash, the luminescent alkaline phosphatase substrate dioxitane was added and was incubated for 30 min at 53° C. The luminescence was detected using a InfiniteF200 luminescence reader (Tecan Austria, Gröding). The biological activity of siRNAs that target Eg5 can not only be determined by bDNA analyses, but also by the phenotype that is caused by Eg5 mRNA depletion in growing cells. Eg5 is a motor protein that belongs to the kinesin-like protein family. Eg5, also known as KSP (kinesin spindle protein), is essential for the formation of the bipolar mitotic spindle and is required for the proper separation of the spindle poles. Depletion of Eg5 leads to the formation of characteristic monoaster spindles and activates the spindle checkpoint. This causes a mitotic arrest that ultimately leads to apoptosis (Tao et. al., Molecular and cellular biology. 2007 January; 27(2):689-98) (Tao W. et. al., Cancer Cell. 2005; 8:49-59.) Because of that, inactivation of Eg5 by siRNA mediates in many cases a cytotoxic phenotype to cultured cells. Therefore, the biological activity of Eg5 siRNA can be analyzed by monitoring the number of living cells.
Table 7 summarizes the results of the bDNA and cytotox assays that we performed to compare the biological activities of transfected siRNAs with that of their transfected digoxygenated counterparts. For the bDNA assays, we seeded HeLa-S3 cells into 96-well plates and allowed them to attach over night. The next day cells were transfected with the indicated amounts of siRNA using the Lipofectamine™ 2000 transfection reagent according to the instructions of the manufacturer (Invitrogen). After 24 hours the QuantiGene kit protocol was followed according to the instructions of the manufacturer (Affymetrix) in order to quantify the mRNA levels of the Eg5 mRNA.

[2] = Excitation and emission spectra of Cy5, Dig-Cy5 and complex; format: physicochemical
Excerpt: To evaluate whether digoxygenation of Cy5 alters its fluorescence features, we compared the excitation and emission spectra of Cy5 and compared it with the spectra of the newly generated Dig-Cy5 and with Dig-Cy5 within a complex with bispecific antibodies. […] We conclude that Dig-Cy5 and -complexes can be applied for antibody-mediated targeting and in vivo imaging.

KPL-4 cells = test: Cytotox assay (CellTiter-Glo) of transfected siRNAs; format: cell-based, human; settings: Dharmafect transfection, 48 hours
Description: To measure the number of living cells the CellTiter-Glo Luminescent Cell Viability Assay (Promega Madison, Wis.) assay was applied according to the protocol supplied by the manufacturer. In this assay the cells are lysed and a luminescent signal proportional to the ATP amount is generated. The ATP amount is directly proportional to the number of living cells. The 96 well plates were then analyzed in a InfiniteF200 luminescence reader (Tecan Austria, Gröding).
For the cytotox assays, KPL-4 cells were seeded at a density of 7000 cells per well in 96 well plates. The cells were incubated for 24 hours at 37° C., 5% CO2 and 85% humidity in RPMI with 10% FCS and L-Glutamine. The next day cells were transfected with the indicated amounts of siRNA using the Dharmafect transfection reagent according to the instructions of the manufacturer (Dharmacon). After 48 hours the cells were treated with the CellTiter-Glo-assay reagent according to the manufacturers instructions.

Eg5-siRNA-DIG = test: SPR (Biacore) binding to mono-digoxygenated siRNA; settings: 25° C.
Description: (§2) For that, binding properties of the recombinant <Dig> derivatives were analyzed by surface plasmon resonance (SPR) technology using a Biacore T100 or Biacore 3000 instrument (GE Healthcare Bio-Sciences AB, Uppsala). […] To perform the binding studies capturing anti-human IgG antibody was immobilized on the surface of a CM5 biosensor chip using amine-coupling chemistry. Flow cells were activated with a 1:1 mixture of 0.1 M N-hydroxysuccinimide and 0.1 M 3-(N,N-dimethylamino)propyl-N-ethylcarbodiimide at a flow rate of 5 μl/min. […] A reference control flow cell was treated in the same way but with vehicle buffers only instead of the capturing antibody. Surfaces were blocked with an injection of 1 M ethanolamine/HCl pH 8.5. […]
(§3) Anti-mouse IgG antibody was immobilized on the surface of a CM5 biosensor chip in the same fashion as described above. […] The samples to be analyzed were diluted in HBS-P (10 mM HEPES, pH 7.4, 150 mM NaCl, 0.005% Surfactant P20) and injected at a flow rate of 5 μl/min. […] Signals were detected at a rate of one signal per second.
(§4) The samples to be analyzed were diluted in HBS-P and injected at a flow rate of 5 μl/min. […]

Eg5-siRNA-(2×)DIG = test: SPR (Biacore) binding to bi-digoxygenated siRNA; settings: 25° C., read-out: KD, binding of siRNA-(2x)DIG
Description: as §2, §3, §4

DIG-Myoglobin = test: SPR binding to mono-digoxygenated protein DIG-myoglobin
Description: (§1) For that, binding properties of the recombinant <Dig> derivatives were analyzed by surface plasmon resonance (SPR) technology using a Biacore T100 or Biacore 3000 instrument (GE Healthcare Bio-Sciences AB, Uppsala). This system is well established for the study of molecule interactions. It allows a continuous real-time monitoring of ligand/analyte bindings and thus the determination of association rate constants (ka), dissociation rate constants (kd), and equilibrium constants (KD) in various assay settings. SPR-technology is based on the measurement of the refractive index close to the surface of a gold coated biosensor chip. Changes in the refractive index indicate mass changes on the surface caused by the interaction of immobilized ligand with analyte injected in solution. If molecules bind to immobilized ligand on the surface the mass increases, in case of dissociation the mass decreases. To perform the binding studies capturing anti-human IgG antibody was immobilized on the surface of a CM5 biosensor chip using amine-coupling chemistry. Flow cells were activated with a 1:1 mixture of 0.1 M N-hydroxysuccinimide and 0.1 M 3-(N,N-dimethylamino)propyl-N-ethylcarbodiimide at a flow rate of 5 μl/min. […] A reference control flow cell was treated in the same way but with vehicle buffers only instead of the capturing antibody. Surfaces were blocked with an injection of 1 M ethanolamine/HCl pH 8.5. To compare the binding of the humanized protein variants with that of the murine <Dig> IgG from the original hybridoma 19-11, capturing anti-mouse IgG antibody was immobilized on the surface of a CM5 biosensor chip in the same fashion as described above for the anti-human IgG antibody. To evaluate the functionality of the recombinant <Dig> derivatives, binding of the recombinant hu<Dig> modules, incl. (i) humanized IgG, (ii) fusion proteins harboring hu<Dig> scFv or (iii) disulfide-stabilized scFvs was assayed with different digoxygenated antigens The resulting binding affinities were compared to the binding of the murine ‘wildtype’ DIG-IgG from which the recombinant humanized modules were derived.
Another SPR study was performed in which the binding affinity of <DIG>-hu2, IGF1R-DIG and <DIG> M-19-11 was compared in terms of binding to the mono-digoxygenated protein DIG-myoglobin.

DIG-siRNA2349 = test: SPR binding to DIG-siRNA2349; settings: analyte DIG-siRNA2349; replicate lines; listed as <DIG>M-19-11
Description: as §1, with “derived. […]” for “derived.”

[3] = analyte DIG-Myoglobin, replicate lines, listed as <DIG>M-19-11

Dig-Luciferase siRNA: digoxygenated luciferase siRNA, Seq. ID NO. 23/30 (chain 1 CUUACGCUGAGUACUUCGATT; chain 2 UCGAAGUACUCAGCGUAAGTT; chain 1: DNA at T, 2'-O-methyl at CU, RNA at AG, 3' {Dig}, backbone not given here; chain 2: sugars from the 5' end rrrrrrmrrrmrrrrmrrrdd, backbone not given here; further chemistry not fully specified)
IC50 [1]: > 100 nM

Cy5 [reference compound]
Emission wavelength (max.) [2]: at 670 nm | Excitation wavelength [2]: 575-605 nm

Eg5 siRNA: siRNA targeting Eg5, Seq. ID NO. 24/31 (chain 1 CUGAAGACCUGAAGACAAUUU; chain 2 AUUGUCUUCAGGUCUUCAGUU; chain 1: sugars from the 5' end r18 m3, backbone not given here; chain 2: RNA, backbone not given here)
IC50 [1]: 0.016 nM | IC50 (KPL-4 cells): 28 nM

Luciferase siRNA: control siRNA, Seq. ID NO. 22/29 (chain 1 CUUACGCUGAGUACUUCGATT; chain 2 UCGAAGUACUCAGCGUAAGTT; chain 1: DNA at T, 2'-O-methyl at CU, RNA at AG, backbone not given here; chain 2: sugars from the 5' end rrrrrrmrrrmrrrrmrrrdd, backbone not given here) [reference compound]
IC50 [1]: > 100 nM

Dig-Eg5 siRNA: mono-digoxygenated Eg5 siRNA, Seq. ID NO. 25/32 (chain 1 CUGAAGACCUGAAGACAAUUU; chain 2 AUUGUCUUCAGGUCUUCAGUU; chain 1: 2'-O-methyl at CU, RNA at AG, 3' {Dig}, backbone not given here; chain 2: RNA, backbone not given here; further chemistry not fully specified)
IC50 [1]: 0.035 nM | IC50 (KPL-4 cells): 4 nM

Dig-Eg5-Cy5 siRNA: digoxygenated Cy5-labeled Eg5 siRNA, Seq. ID NO. 27/34 (chain 1 CUGAAGACCUGAAGACAAUUU; chain 2 AUUGUCUUCAGGUCUUCAGUU; chain 1: RNA, 5' {Cy5}, 3' {Dig}, backbone not given here; chain 2: RNA, backbone not given here)
IC50 [1]: 0.013 nM | IC50 (KPL-4 cells): 215 nM

B1: murine DIG-IgG 19-11: hybridoma clone 19-11 derived murine anti-digoxigenin IgG1 kappa; VL Seq. ID. NO. 1, VH Seq. ID. NO. 2 (antibody, listed as Mus musculus, V domains shown)
VH: MNFVLSLIFLALILKGVQCEVQLVESGGGLVKPGGSLKLSCAVSGFTFSDYAMSWIRQTPENRLEWVASINIGATYAYYPDSVKGRFTISRDNAKNTLFLQMSSLGSEDTAMYYCARPGSPYEYDKAYYSMAYWGPGTSVTVSS
VL: MSSAQFLGLLLLCFQGTRCDVQMTQSTSSLSASLGDRVTISCRASQDIKNYLNWYQQKPGGTVKLLIYYSSTLLSGVPSRFSGRGSGTDFSLTITNLEREDIATYFCQQSITLPPTFGGGTKLEIK
notes: hybridoma clone 19-11 derived murine anti-digoxigenin IgG1 kappa; ID; NO
Kd (Eg5-siRNA-DIG): 0.269 nM | Kd (Eg5-siRNA-(2×)DIG): 0.017 nM | affinity to DIG-Myo compared with <DIG>-hu2 and disulfide-stabilized <DIG> scFv (DIG-Myoglobin; SPR): about a hundred fold better | ka (DIG-Myoglobin; [3]): 1.75e+06 M⁻¹ s⁻¹ and 2.28e+06 M⁻¹ s⁻¹ | kd (DIG-Myoglobin; [3]): 0.000676 s⁻¹ and 0.000675 s⁻¹ | Kd (DIG-siRNA2349): 0.276 nM and 0.371 nM | ka (DIG-siRNA2349): 3.27e+06 M⁻¹ s⁻¹ and 2.26e+06 M⁻¹ s⁻¹ | kd (DIG-siRNA2349): 0.000903 s⁻¹ and 0.000838 s⁻¹
